The RepoRT retention time repository (doi:10.1016/j.jhazmat.2019.121712)

Assay: Thermo Scientific Acclaim RSLC 120 C18, 100 × 2.1 mm, 2.2 µm, 30 °C; A: 90% water + 10% methanol + 0.01% formic acid + 5 mM ammonium formate; B: methanol + 0.01% formic acid + 5 mM ammonium formate; gradient (min/%B) 0.1/1 3/39 14/99.9 16/99.9
Conditions: stereoisomer not certain

LC retention time [min] | SMILES
2.89 | CC(C)(C)NCC(O)c1ccc(O)c(NC(N)=O)c1 (stereo unspecified)
4.44 | O=C(O)CCCCC1SCC2NC(=O)NC21 (stereo unspecified)
9.16 | CCC1OC(=O)C(C)C(OC2CC(C)(OC)C(O)C(C)O2)C(C)C(OC2OC(C)CC(NC)C2O)C(C)(OC)CC(C)C(=O)C(C)C(O)C1(C)O (stereo unspecified)
6.41 | COc1ccc(C2Sc3ccccc3N(CCN(C)C)C(=O)C2O)cc1 (stereo unspecified)
6.68 | CC(C)NCC(O)COc1ccc(CCOCC2CC2)cc1 (stereo unspecified)
5.59 | CCNC(=O)c1ccc(OC)cc1
6.67 | Cc1cccc(Nc2ccncc2S(=O)(=O)NC(=O)NC(C)C)c1
8.42 | O=c1[nH]c2ccccc2n1CCCN1CCN(C(c2ccccc2)c2ccccc2)CC1
1.4 | CC(=O)NCCCS(=O)(=O)O
7.86 | Cc1cc(C)cc(OCC2CNC(=O)O2)c1 (stereo unspecified)
9.24 | CC=CC(=O)N(CC)c1ccccc1C
7.14 | CC(C)NC(=O)c1ccccc1O
10.3 | COC(=O)Nc1nc2ccc(Sc3ccccc3)cc2[nH]1
5.81 | Nc1ccc(S(=O)(=O)Nc2cnc3ccccc3n2)cc1
6.77 | COc1cc(OC)nc(NC(=O)NS(=O)(=O)N(C)S(C)(=O)=O)n1
4.08 | CCCC1CC(C(=O)NC(C(C)O)C2OC(SC)C(O)C(O)C2O)N(C)C1 (stereo unspecified)
9.79 | CSc1nc2ccccc2s1
5.54 | Cc1ncc(CSSCc2cnc(C)c(O)c2CO)c(CO)c1O
5.06 | O=C1OCC(O)=C1Cc1ccccc1
2.54 | CNCC(O)c1cccc(NS(C)(=O)=O)c1 (stereo unspecified)
9.08 | CC(CN1CCN(CCOCCO)CC1)CN1c2ccccc2Sc2ccccc21 (stereo unspecified)

LC retention time [min] | SMILES
7.39 | CN(C)S(=O)(=O)c1ccc2c(c1)N(CCCN1CCC(CCO)CC1)c1ccccc1S2
7.19 | COc1ccc(CCN(C)CCCC(C#N)(c2cc(OC)c(OC)c(OC)c2)C(C)C)cc1OC (stereo unspecified)
4.23 | Cn1c(=O)c2c(ncn2C)n(C)c1=O
3.19 | CCNC1CC(C)S(=O)(=O)c2sc(S(N)(=O)=O)cc21 (stereo unspecified)
9.83 | COc1cc(CNC(=O)CCCCC=CC(C)C)ccc1O
8.8 | CN1CCN(CCCN2c3ccccc3Sc3ccccc32)CC1
6.61 | O=C(O)c1cc(N=Nc2ccc(S(=O)(=O)Nc3ccccn3)cc2)ccc1O
1.36 | NC(=O)c1ncn(C2OC(CO)C(O)C2O)n1 (stereo unspecified)
9.21 | CCCCC(=O)N(Cc1ccc(-c2ccccc2-c2nn[nH]n2)cc1)C(C(=O)O)C(C)C (stereo unspecified)
3.71 | COc1nc(C)nc(N)n1
9.23 | CCC1OC(=O)C(C)C(OC2CC(C)(OC)C(O)C(C)O2)C(C)C(OC2OC(C)CC(N(C)C)C2O)C(C)(O)CC(C)C(=NOCOCCOC)C(C)C(O)C1(C)O (stereo unspecified)
7.98 | CN1CCCN=C1COC(=O)C(O)(c1ccccc1)C1CCCCC1 (stereo unspecified)
8.31 | COC(=O)C1=C(C)NC(C)=C(C(=O)OC)C1c1ccccc1[N+](=O)[O-]
1.58 | CCOS(=O)(=O)O
5.6 | COc1cc(NS(=O)(=O)c2ccc(N)cc2)nc(OC)n1
7.61 | CN(C)CCC=C1c2ccccc2CSc2ccccc21
5.86 | Cc1ccc(N(CC2=NCCN2)c2cccc(O)c2)cc1
7.08 | CC(C(=O)O)c1ccc(CC(C)(C)O)cc1 (stereo unspecified)
7.76 | CC(C)c1ccc(NC(N)=O)cc1
4.77 | Nc1c2c(nc3ccccc13)CCCC2
4.84 | c1ccc2c(CC3=NCCN3)cccc2c1

LC retention time [min] | SMILES
6.24 | CCCOc1ccc(C(=O)CCN2CCCCC2)cc1
4.74 | CNc1c(C)n(C)n(-c2ccccc2)c1=O
6.99 | Cc1cc(C(C)(C)C)c(O)c(C)c1CC1=NCCN1
9.29 | CCCCCCOC(=O)NC(=N)c1ccc(NCc2nc3cc(C(=O)N(CCC(=O)OCC)c4ccccn4)ccc3n2C)cc1
2.8 | C=CC(=O)NC(C)(C)CS(=O)(=O)O
9.21 | CC12CCC(O)CC1CCC1C2C(=O)CC2(C)C1CCC2(O)C(=O)CO (stereo unspecified)
10.4 | CCSc1ccc2c(c1)N(CCCN1CCN(C)CC1)c1ccccc1S2
7.76 | O=C(O)Cc1cccc2ccccc12
7.75 | Cc1cc(C(C)(C)C)cc(C)c1CC1=NCCN1
7.52 | CC(CN(C)C)CN1c2ccccc2Sc2ccc(C#N)cc21 (stereo unspecified)
5.89 | CC(C)(C)c1n[nH]c(=O)n(N)c1=O
7.03 | CNCCC=C1c2ccccc2COc2ccccc21
9.86 | C(=Cc1ccccc1)CN1CCN(C(c2ccccc2)c2ccccc2)CC1
10.9 | CN(C(=O)CN(CCO)CC(=O)N(C)C(C)(C)Cc1ccccc1)C(C)(C)Cc1ccccc1
4.28 | CN1CCc2cccc3c2C1Cc1ccc(O)c(O)c1-3 (stereo unspecified)
13.8 | CON=C1CC2(CC3CC(CC=C(C)CC(C)C=CC=C4COC5C(O)C(C)=CC(C(=O)O3)C45O)O2)OC(C(C)=CC(C)C)C1C (stereo unspecified)
3.71 | NNCCc1ccccc1
8.33 | CNCC(C)CN1c2ccccc2Sc2ccc(OC)cc21 (stereo unspecified)
4.79 | COc1ccc(CC(C)NCC(O)c2ccc(O)c(NC=O)c2)cc1 (stereo unspecified)
6.94 | CN1CCN2c3ccccc3Cc3ccccc3C2C1 (stereo unspecified)

SMILES | LC retention time [min]
CCOP(=S)(OCC)SCS(=O)(=O)C(C)(C)C | 9.01
CCCCCCn1cc(C(=O)c2cccc3ccccc23)c2ccccc21 | 12.9
CCCC(C(=O)c1ccc2ccccc2c1)N1CCCC1 (stereo unspecified) | 7.33
CCOP(=S)(OCC)Oc1cc(-c2ccccc2)on1 | 11.3
CCCc1cc(OC)c(CCN)cc1OC | 7.46
CCNc1nc(NCC)nc(SC)n1 | 8.14
CCC(N)Cc1ccc2c(c1)OCO2 (stereo unspecified) | 4.73
Cc1cc(C)nc(Nc2ccccc2)n1 | 9.44
CCC(NC)C(=O)c1ccccc1 (stereo unspecified) | 4.26
O=C1CN=C(c2ccccc2)c2c(sc3c2CCCC3)N1 | 9.49
CC1C(c2ccccc2)OCCN1C (stereo unspecified) | 4.06
CCCCCn1cc(C(=O)Nc2cccc3ccccc23)c2ccccc21 | 11.7
Nc1nc(N)nc(N)n1 | 1.45
NCC(O)c1cccc(O)c1 (stereo unspecified) | 1.81
CCOC(=O)C(c1ccccc1)C1CCCCN1 (stereo unspecified) | 5.08
c1ccc(C2(N3CCCCC3)CCCCC2)cc1 | 5.74
CCOP(=S)(OCC)Oc1ccc(S(C)(=O)=O)cc1 | 8.48
CCC(Cc1ccc2c(c1)OCO2)NC (stereo unspecified) | 4.66
CCOP(=O)(OCC)OCC | 6.16
COc1ccc2c(c1O)-c1c3c(cc4c1C(C2)N(C)CC4)OCO3 (stereo unspecified) | 4.36
CCCCCn1cc(C(=O)CC(C)(C)C(C)(C)O)c2ccccc21 | 11.6
c1cncc(C2CCCN2)c1 (stereo unspecified) | 3.14
CC1(C)C(C(=O)c2cn(CC3CCOCC3)c3ccccc23)C1(C)C | 11.4
CCCCn1cc(C(=O)c2cccc3ccccc23)c2c(O)cccc21 | 12
COc1ccc(C(O)(c2cncnc2)C2CC2)cc1 (stereo unspecified) | 7.15
COC(=O)Nc1cccc(OC(=O)Nc2cccc(C)c2)c1 | 8.75
CCCCOC(=O)N(C)SN(C)C(=O)Oc1cccc2c1OC(C)(C)C2 | 12.1

SMILES | LC retention time [min]
CCNc1nc(NC(C)C)nc(OC)n1 | 7.81
CCC(=O)C(CC(C)N(C)C)(c1ccccc1)c1ccccc1 (stereo unspecified) | 8.04
CCCCn1c(O)c(C(=O)c2cccc3ccccc23)c2ccccc21 | 13.5
CSc1ccc(CC(C)N)cc1 (stereo unspecified) | 5.24
CCOP(=S)(OCC)Oc1cc(C)nc(N(CC)CC)n1 | 12.3
COC=C(C(=O)OC)c1ccccc1Oc1cc(Oc2ccccc2C#N)ncn1 | 9.02
CCOP(=S)(OCC)SCCS(=O)(=O)CC | 8.02
CCNC(C)C(=O)c1ccc(C)cc1 (stereo unspecified) | 4.74
CCN(CC)C(C)C(=O)c1ccccc1 (stereo unspecified) | 4.11
c1coc(-c2nc3ccccc3[nH]2)c1 | 6.48
CCOC(=O)C1(c2ccccc2)CCN(C)CC1 | 5.28
O=C(O)CCCCn1cc(C(=O)c2cccc3ccccc23)c2ccccc21 | 9.71
CC1=C(C(=O)Nc2ccccc2)S(=O)(=O)CCO1 | 5.59
CCOC(=O)c1ccccc1C(=O)OCC | 8.5
NCCc1ccccc1 | 3.57
CCN(C(=O)SCc1ccccc1)C(C)C(C)C (stereo unspecified) | 12.2
CNC(=O)Oc1ccc(N(C)C)c(C)c1 | 5.15
CC12Cc3cn[nH]c3CC1CCC1C2CCC2(C)C1CCC2(C)O (stereo unspecified) | 11.3
Cc1nccc2c1[nH]c1ccccc12 | 4.91
C=CCN(CC=C)CCc1c[nH]c2ccc(OC)cc12 | 4.89
COC(=O)C(c1ccccc1)C1CCCCN1 (stereo unspecified) | 4.96
CCCCCCCC(C)(C)c1ccc(C2CCCC(O)C2)c(O)c1 (stereo unspecified) | 13.5
CCN(CCO)CCn1c(Cc2ccccc2)nc2c1c(=O)n(C)c(=O)n2C | 5.24
O=C(O)C(c1ccccc1)C1CCCCN1 (stereo unspecified) | 4.61
CCOP(=O)(OCC)SCSCC | 8.6
CC12CCC(=O)C=C1CCC1C2CCC2(C)C(OC(=O)c3ccccc3)CCC12 (stereo unspecified) | 13.8
CCOP(=S)(OCC)Oc1cnc2ccccc2n1 | 10.8
